Each block holds one molecule with its values, some of them ahead of it.
What was measured:
[1] = system: NSC Lung Cancer subpanel tumor cell lines; assay: NCI anticancer screening, subpanel summary; type: cell-based; conditions: non-small cell lung; 10 µM, joint for compounds named together
MALME-3M = assay: NCI anticancer screening (SRB), Melanoma subpanel; type: cell-based, human; conditions: 10.0 µM in one dose
[2] = system: Leukemia subpanel tumor cell lines; assay: NCI anticancer screening, subpanel summary; type: cell-based; conditions: leukemia; 10 µM, joint for compounds named together
HOP-92 = assay: NCI anticancer screening (SRB), Non-Small Cell Lung Cancer subpanel; type: cell-based, human; conditions: 10.0 µM in one dose
[3] = system: 59 human cancer cell lines; assay: NCI anticancer screening, full panel summary; conditions: 10 µM single dose; for PCE (positive cytotoxic effect): ratio of cell lines with growth inhibition > 10% to total cell lines; for MG% (mean growth percent): mean over 59 cell lines
UO-31 = assay: NCI anticancer screening (SRB), Renal Cancer subpanel; type: cell-based, human; conditions: 10.0 µM in one dose
[4] = system: Breast Cancer subpanel tumor cell lines; assay: NCI anticancer screening, subpanel summary; type: cell-based; conditions: breast; 10 µM, joint for compounds named together
A498 = assay: NCI anticancer screening (SRB), Renal Cancer subpanel; type: cell-based, human; conditions: 10.0 µM in one dose
UACC-257 = assay: NCI anticancer screening (SRB), Melanoma subpanel; type: cell-based, human; conditions: 10.0 µM in one dose
CAKI-1 = assay: NCI anticancer screening (SRB), Renal Cancer subpanel; type: cell-based, human; conditions: 10.0 µM in one dose
MCF-7 = assay: NCI anticancer screening (SRB), Breast Cancer subpanel; type: cell-based, human; conditions: 10.0 µM in one dose
SR = assay: NCI anticancer screening (SRB), Leukemia subpanel; type: cell-based, human; conditions: 10.0 µM in one dose
HT29 = assay: NCI anticancer screening (SRB), Colon Cancer subpanel; type: cell-based, human; conditions: 10.0 µM in one dose
PC-3 = assay: NCI anticancer screening (SRB), Prostate Cancer subpanel; type: cell-based, human; conditions: 10.0 µM in one dose
HCT-15 = assay: NCI anticancer screening (SRB), Colon Cancer subpanel; type: cell-based, human; conditions: 10.0 µM in one dose
SF-539 = assay: NCI anticancer screening (SRB), CNS Cancer subpanel; type: cell-based, human; conditions: 10.0 µM in one dose
EKVX = assay: NCI anticancer screening (SRB), Non-Small Cell Lung Cancer subpanel; type: cell-based, human; conditions: 10.0 µM in one dose
MDA-MB-231/ATCC = assay: NCI anticancer screening (SRB), Breast Cancer subpanel; type: cell-based, human; conditions: 10.0 µM in one dose
SF-295 = assay: NCI anticancer screening (SRB), CNS Cancer subpanel; type: cell-based, human; conditions: 10.0 µM in one dose
SK-MEL-5 = assay: NCI anticancer screening (SRB), Melanoma subpanel; type: cell-based, human; conditions: 10.0 µM in one dose
NCI-H226 = assay: NCI anticancer screening (SRB), Non-Small Cell Lung Cancer subpanel; type: cell-based, human; conditions: 10.0 µM in one dose
RPMI-8226 = assay: NCI anticancer screening (SRB), Leukemia subpanel; type: cell-based, human; conditions: 10.0 µM in one dose
LOX IMVI = assay: NCI anticancer screening (SRB), Melanoma subpanel; type: cell-based, human; conditions: 10.0 µM in one dose
NCI-H23 = assay: NCI anticancer screening (SRB), Non-Small Cell Lung Cancer subpanel; type: cell-based, human; conditions: 10.0 µM in one dose
[5] = system: Ovarian Cancer subpanel tumor cell lines; assay: NCI anticancer screening, subpanel summary; type: cell-based; conditions: ovarian; 10 µM, joint for compounds named together
HCT-116 = assay: NCI anticancer screening (SRB), Colon Cancer subpanel; type: cell-based, human; conditions: 10.0 µM in one dose
U251 = assay: NCI anticancer screening (SRB), CNS Cancer subpanel; type: cell-based, human; conditions: 10.0 µM in one dose
DU-145 = assay: NCI anticancer screening (SRB), Prostate Cancer subpanel; type: cell-based, human; conditions: 10.0 µM in one dose
MOLT-4 = assay: NCI anticancer screening (SRB), Leukemia subpanel; type: cell-based, human; conditions: 10.0 µM in one dose
MDA-MB-468 = assay: NCI anticancer screening (SRB), Breast Cancer subpanel; type: cell-based, human; conditions: 10.0 µM in one dose
T-47D = assay: as above; type: cell-based, human; conditions: 10.0 µM in one dose
in vitro = conditions: human
Description: the measured protein at the end of the drug treatment as compared to that at the beginning) indicating a net loss of cells following treatment was calculated from [(Ti − Tz)/Tz] […] = − 50.
Values were calculated for each of these three parameters if the activity level was reached; however, if the effect was not reached or exceeded, that parameter's value was expressed as more or less than the maximum or minimum concentration tested. The log GI50, log TGI, and log LC50 were then determined and defined as the mean of the logs of the individual GI50, TGI, and LC50 values. The lowest values are obtained with the most sensitive cell lines. The compound with log GI50 values −4 and <−4 was declared active.
2. In vitro cytotoxic activity towards normal fibroblast (WI-38) cells Cell Lines were obtained from the American Type Culture Collection; cells were cultured using DMEM (Invitrogen/Life Technologies) supplemented with 10% FBS (Hyclone), ten ug/ml of insulin (Sigma), and 1% penicillin–streptomycin. Cultures were removed from the incubator into a laminar flow hood, reconstituted with 3 mL of balanced salt solution without phenol red and serum, and then added to an amount equal to 10% of the culture medium volume. Cultures returned to the incubator for 2–4 h. After the incubation period, the resulting formazan crystals dissolved […]
medium volume. The absorbance was measured Spectrophotometrically at a wavelength of 570 […]
3. In vitro cyclooxygenase (COX-2) inhibition assay
The ability of the test compounds to inhibit COX-2 was determined using an enzyme immunoassay […]
manufacturer’s instructions.

MCF-7 cells [6] = assay: Cell cycle analysis (PI flow cytometry); type: cell-based, human; conditions: 10 μM, 24 h
Description: Apoptosis is the primary mechanism by which potent chemotherapeutic agents destroy cancer cells. […] Flow cytometry measured cell growth in the G0-G1, S, and G2/M cell cycle phases.
Using the MCF-7 cell line, the cell cycle analysis was carried out like our previous investigation. A FACSCalibur flow cytometer was used to analyze the cells after they had been stained with DNA fluorochrome PI (Supplementary Materials). […]
photomultiplier voltage and for compensation setting adjustment to eliminate spectral overlap between the FL1 and the FL2 signals.
6. Cell cycle analysis
Breast carcinoma (MCF-7) cell was seeded at 2 × 10^5 cells/well density and incubated for 24 h in six-well plates. Foetal bovine serum (10%) was added, and the cells were incubated at 37 °C in an atmosphere of 5% CO2. The medium was replaced with 1% (v/v) DMSO containing 10.0 μM of […]
with 70% ethanol, rinsed with phosphate-buffered saline, and then stained with the DNA fluorochrome propidium iodide (PI) for 15 min at 37 °C. Then, samples were analyzed by flow cytometry using a FACSCalibur (Becton Dickinson). The cell cycle distributions were calculated using CellQuest software (Becton Dickinson). […]

MCF-7 cells [7] = assay: Annexin V-FITC/PI apoptosis assay; type: cell-based, human; conditions: 24 h

Structure (SMILES): CS(=O)(=O)Nc1ccc(C(=O)N/N=C/c2cccc(O)c2)cc1 [Compound 9]
GI range in subpanel [1]: 23.0% | GI% (MALME-3M): 12% | GI range in subpanel [2]: 10.0% | GI% (HOP-92): 23% | PCE (positive cytotoxic effect) [3]: 3/59 | GI% (UO-31): 17% | GI range in subpanel [4]: 11.0%

Structure (SMILES): CS(=O)(=O)Nc1ccc(C(=O)N/N=C/c2ccc(O)cc2)cc1 [Compound 10]
GI range in subpanel [1]: 23.0% | GI% (A498): 15% | GI% (UACC-257): 10% | GI range in subpanel [2]: 10.0% | GI% (CAKI-1): 10% | PCE (positive cytotoxic effect) [3]: 4/59 | GI% (UO-31): 14% | GI range in subpanel [4]: 11.0%

Structure (SMILES): COc1cc(/C=N/NC(=O)c2ccc(NS(C)(=O)=O)cc2)ccc1O [Compound 11]
GI range in subpanel [1]: 23.0% | GI% (MCF-7): 11% | GI% (SR): 10% | GI range in subpanel [2]: 10.0% | GI% (CAKI-1): 16% | PCE (positive cytotoxic effect) [3]: 4/59 | GI% (UO-31): 10% | GI range in subpanel [4]: 11.0%

Structure (SMILES): Cc1ccc(NC(=O)c2ccc(CN3CCN(C)CC3)cc2)cc1Nc1nccc(-c2cccnc2)n1 [Imatinib, imatinib]
GI% (HT29): 47% | GI% (A498): 14% | GI% (PC-3): 11% | GI% (HCT-15): 12% | GI% (SF-539): 25% | GI% (EKVX): 16% | GI% (SR): 15% | GI% (MDA-MB-231/ATCC): 11% | GI% (SF-295): 15% | GI% (SK-MEL-5): 22% | GI% (NCI-H226): 11% | GI% (RPMI-8226): 13% | GI% (LOX IMVI): 12% | GI% (NCI-H23): 17% | GI range in subpanel [5]: ≥ 10.0% | GI% (HCT-116): 19% | GI% (U251): 11% | MG% (mean growth percent) [3]: 92.62% | MG% (mean growth percent) ([3]; listed as imatinib): 92.6% | GI% (DU-145): 14% | GI% (MOLT-4): 18% | GI% (MDA-MB-468): 29% | GI% (T-47D): 19%

IC50 (in vitro): 32 µM
Structure (SMILES): CS(=O)(=O)CCNCc1ccc(-c2ccc3ncnc(Nc4ccc(OCc5cccc(F)c5)c(Cl)c4)c3c2)o1 [Lapatinib, lapatinib]

Structure (SMILES): CN[C@@H]1C[C@H]2O[C@@](C)([C@@H]1OC)n1c3ccccc3c3c4c(c5c6ccccc6n2c5c31)C(=O)NC4 [Staurosporine, staurosporine]
%G0–G1 (MCF-7 cells [6]): 65.74% | %G2-M (MCF-7 cells [6]): 3.07% | %S (MCF-7 cells [6]): 31.19% | Comment (cell cycle arrest phase) (MCF-7 cells [6]): Growth arrest@G1/S | Necrosis (MCF-7 cells [7]): 4.04% | Total Apoptosis (MCF-7 cells [7]; annexin V-FITC/PI): 34.39% | Early Apoptosis (MCF-7 cells [7]; lower-right quadrant): 8.36% | Late Apoptosis (MCF-7 cells [7]; upper-right quadrant): 21.99%
